Consider two compounds from patent EP0236477B1 (priority 1985, dated 1987).

For data set [1] the following is noted: cited from earlier work; for potency relative to naloxone: in vivo.
The conditions of data set [2]: plasma of a patient; cited from earlier work.
The nature of data set [3]: Duration of opioid antagonistic activity (general statements). In kind it is in vivo. The settings on record: intravenously injectable.

For the compound `O=C1CC[C@@]2(O)[C@H]3Cc4ccc(O)c5c4[C@@]2(CCN3CC2CC2)[C@H]1O5` [naltrexon, reference compound], the “potency relative to naloxone” value in data set [1] is “significantly more potent”.
With `C=C1CC[C@@]2(O)[C@H]3Cc4ccc(O)c5c4[C@@]2(CCN3CC2CC2)[C@H]1O5` [6-methylene-6-desoxy-N-cyclopropylmethyl-14-hydroxydihydronormorphine], the “potency relative to naloxone” value in data set [1] is on record as “significantly more potent”. In data set [1] (intravenous route), the “potency as an antagonist relative to naltrexon” value is listed as “about four times more potent”. The “time a pharmacologically active concentration can remain in the plasma” value in data set [2] is “three days”. For the same compound, the “duration of antagonistic activity” value in data set [3] is “at least 6 hours”.
